In patent publication US12454525B2, “IL4I1 inhibitors and methods of use” (Merck Sharp & Dohme LLC, priority 2020, dated 2025):

These compounds were tested against T1, recombinant IL4I1 (Homo sapiens, UniProt Q96RQ9) (assay: IL4I1 Enzymatic Assay (Amplex Red/HRP coupled H2O2 detection)). Details: 240 min; four-hour pre-incubation with compound; 1 nM IL4I1, 1 mM each Phe/Tyr/Trp; ten-point titration; fluorescence readout; read-out: Potency EC50 (nM) (240 min).
T1 construct: purchased R&D Systems 5684-AO-020
T1 sequence (Q96RQ9 22-567): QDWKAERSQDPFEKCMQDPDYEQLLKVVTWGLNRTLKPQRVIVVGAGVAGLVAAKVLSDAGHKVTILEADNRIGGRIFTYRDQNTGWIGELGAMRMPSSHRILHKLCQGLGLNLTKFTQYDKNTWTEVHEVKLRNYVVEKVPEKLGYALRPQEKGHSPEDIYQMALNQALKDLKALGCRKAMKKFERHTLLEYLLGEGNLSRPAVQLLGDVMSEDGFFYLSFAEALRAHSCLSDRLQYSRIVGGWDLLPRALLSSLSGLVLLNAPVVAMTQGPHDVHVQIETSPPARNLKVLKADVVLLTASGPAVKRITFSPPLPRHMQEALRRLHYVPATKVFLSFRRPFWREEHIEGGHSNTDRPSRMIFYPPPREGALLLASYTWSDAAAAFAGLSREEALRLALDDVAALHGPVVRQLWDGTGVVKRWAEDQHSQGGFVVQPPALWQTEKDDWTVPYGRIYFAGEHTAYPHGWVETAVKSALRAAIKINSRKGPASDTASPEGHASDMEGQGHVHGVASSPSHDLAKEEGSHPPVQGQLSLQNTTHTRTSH
Type: biochemical
Experimental: Interleukin 4 inducible protein 1 (IL4I1) is an L-amino oxidase that catalyzes the oxidation of aromatic residues (Phe, Trp and Tyr): L-amino acid+H2O+O2→2-oxo acid+NH3+H2O2. Equal molar of H2O2 and the corresponding alpha-ketoacid are produced when IL4I1 and substrate are added. In this assay, the hydrogen peroxide generated by IL4I1 is then detected through a coupled reaction with Amplex Red (10-acetyl-3,7-dihydroxyphenoxazine) and […] (HRP) to produce Resorufin product that could be detected in the form of fluorescence signals. The assessment of the inhibitory effect of small molecules (EC50) on IL4I1 is measured by the effectiveness of the compounds to inhibit the production of H2O2.
Using this assay, the potency (EC50) of each compound was determined from a ten-point (1:3 serial dilution) titration curve using the following outlined procedure. To each well of a black flat-bottom Greiner (Cat #781076) 384 well-plate, 25 nL of compound (0.1% DMSO in final assay volume of 25 μL) was dispensed, followed by the addition of 12.5 μL of 1x assay buffer (50 mM Hepes 7.0 and 0.005% Tween20 (Sigma, Cat #P8341; low peroxide grade)) containing 2 nM of recombinant IL4I1 (R&D Systems, Cat #5684-AO-020). Plates were placed in an ambient temperature humidified chamber for a four-hour pre-incubation with compound. Subsequently, each reaction was initiated by the addition of 12.5 μL 1x assay buffer containing 2 mM of each aromatic amino acids (Phe/Tyr/Trp), 0.1 mM Amplex Red and 2 U/mL of HRP. The final reaction in each well of 25 μL consists of 1 nM of IL411, 1 mM of each residues (Phe, Tyr and Trp), 0.05 mM Amplex Red and 1 U/mL of HRP. It should be noted that the concentrations of Amplex Red and HRP used here are in excess such that the conversion of H2O2 to Resorufin product occurs instantaneously and non-rate limiting. Reactions were allowed to proceed for 120 minutes followed by fluorescence readout on a Spectramax with the following set parameters: 544 nm excitation/590 nm emission, 570 nm cutoff (EnVision is an alternative reader). Dose-response curves were generated by plotting percent effect (% product conversion; Y-axis) vs. Log10 compound concentrations (X-axis). EC50 values were calculated using a non-linear regression, four-parameters sigmoidal dose-response model and are shown in Table 16.

SMILES | EC50 [nM]
O=c1[nH]c2ccsc2n1Cc1ccccc1 [Example 113, 3-benzyl-1,3-dihydro-2H-thieno[2,3-d]imidazol-2-one] | 2850
O=c1[nH]c2cc(F)c(F)cc2n1Cc1ccccc1 [Example 69, 1-benzyl-5,6-difluoro-1,3-dihydro-2H-benzo[d]imidazol-2-one] | 2270
O=c1[nH]c2ccccc2n1CCN1CCCCC1 [Example 62, 1-[2-(piperidin-1-yl)ethyl]-1,3-dihydro-2H-benzimidazol-2-one] | 1240
O=c1[nH]c2ccccc2n1Cc1ccc(Cn2ccnn2)cc1 [Example 82, 1-(4-((1H-1,2,3-triazol-1-yl)methyl)benzyl)-1H-benzo[d]imidazol-2 (3H)-one] | 48
O=c1[nH]c2c(N3CCCC3)cccc2n1Cc1ccccc1 [Example 93, 1-benzyl-4-(pyrrolidin-1-yl)-1,3-dihydro-2H-benzo[d]imidazol-2-one] | 1340
O=c1[nH]c2ccccc2n1CCC1CCCO1 (stereo not drawn) [Example 60, 1-[2-(oxolan-2-yl)ethyl]-1,3-dihydro-2H-benzimidazol-2-one] | 8660
O=c1[nH]c2ccccc2n1Cc1cccnc1 [Example 56, 1-(pyridin-3-ylmethyl)-1,3-dihydro-2H-benzo[d]imidazol-2-one] | 2480
O=C(Cc1ccc(Cn2c(=O)[nH]c3ccccc32)cc1)NC1CCC(F)C1 (stereo not drawn) [Example 106, N-(3-fluorocyclopentyl)-2-(4-((2-oxo-2,3-dihydro-1H-benzo[d]imidazol-1-yl)methyl)phenyl)acetamide] | 38
O=C1CCCN1Cc1ccc(Cn2c(=O)[nH]c3cc(F)ccc32)cc1 (single isomer, unassigned) [Example 85, 5-fluoro-1-(4-((2-oxopyrrolidin-1-yl)methyl)benzyl)-1,3-dihydro-2H-benzo[d]imidazol-2-one] | 389
O=c1[nH]c2ccccc2n1CCC1CCCCC1 [Example 58, 1-(2-cyclohexylethyl)-1,3-dihydro-2H-benzimidazol-2-one] | 936
O=c1[nH]c2ccccc2n1Cc1ccc2c(c1)S(=O)(=O)CC2 [Example 28, 1-((1,1-dioxido-2,3-dihydrobenzo[b]thiophen-6-yl)methyl)-1,3-dihydro-2H-benzo[d]imidazol-2-one] | 33
CC(C)(C)c1ccnc(Cn2c(=O)[nH]c3ccccc32)c1 [Example 63, 1-[(4-tert-butylpyridin-2-yl)methyl]-1,3-dihydro-2H-benzimidazol-2-one] | 4530
O=c1[nH]c2cc(Cl)ccc2n1Cc1ccc(Cc2nnco2)cc1 [Example 100] | 784
CC(C)C1CC(Cn2c(=O)[nH]c3ccccc32)C1 (stereo not drawn) [Example 57, 1-{[3-(propan-2-yl)cyclobutyl]methyl}-1,3-dihydro-2H-benzimidazol-2-one] | 3040

The next compounds have a lower EC50 than those just listed; values first:

EC50 [nM] | SMILES
0.8 | O=c1[nH]c2ccccc2n1Cc1ccc2c(c1)CCC2 [Example 55, 1-((2,3-dihydro-1H-inden-5-yl)methyl)-1,3-dihydro-2H-benzo[d]imidazol-2-one]
19 | CC(=O)N[C@H](C)c1ccc(Cn2c(=O)[nH]c3ccccc32)cc1 [Example 15, (R)—N-(1-(4-((2-oxo-2,3-dihydro-1H-benzo[d]imidazol-1-yl)methyl)phenyl)ethyl)acetamide]
12 | Cn1cnnc1Cc1ccc(Cn2c(=O)[nH]c3ccccc32)cc1 [Example 53, 1-(4-((4-methyl-4H-1,2,4-triazol-3-yl)methyl)benzyl)-1,3-dihydro-2H-benzo[d]imidazol-2-one]
13 | O=C1CCCN1Cc1ccc(Cn2c(=O)[nH]c3ccccc32)cc1 [Example 1, 1-(4-((2-oxopyrrolidin-1-yl)methyl)benzyl)-1,3-dihydro-2H-benzo[d]imidazol-2-one]
4 | Cc1ccc(C2CC2Cn2c(=O)[nH]c3ccccc32)nc1 (single isomer, unassigned) [Example 111, 1-((2-(5-methylpyridin-2-yl)cyclopropyl)methyl)-1,3-dihydro-2H-benzo[d]imidazol-2-one]
27 | CN1CCN(c2cccc(Cn3c(=O)[nH]c4ccccc43)c2)CC1 [Example 80, 1-(3-(4-methylpiperazin-1-yl)benzyl)-1,3-dihydro-2H-benzo[d]imidazol-2-one]
16 | CN(Cc1ccc(Cn2c(=O)[nH]c3ccccc32)cc1)S(=O)(=O)C1CC1 [Example 75, N-methyl-N-(4-((2-oxo-2,3-dihydro-1H-benzo[d]imidazol-1-yl)methyl)benzyl)cyclopropanesulfonamide]
7 | CC(=O)NCc1sc(Cn2c(=O)[nH]c3ccccc32)cc1C [Example 40, N-((3-methyl-5-((2-oxo-2,3-dihydro-1H-benzo[d]imidazol-1-yl)methyl)thiophen-2-yl)methyl)acetamide]
10 | O=c1[nH]c2ccccc2n1Cc1ccc(Cn2nncc2CO)cc1 (single isomer, unassigned) [Example 81, 1-(4-((5-(hydroxymethyl)-1H-1,2,3-triazol-1-yl)methyl)benzyl)-1,3-dihydro-2H-benzo[d]imidazol-2-one]
18 | O=c1[nH]c2ccccc2n1Cc1ccc2c(c1)CCN2 [Example 52, 1-(indolin-5-ylmethyl)-1,3-dihydro-2H-benzo[d]imidazol-2-one]
24 | CC(=O)NCc1ccc(Cn2c(=O)[nH]c3ccc(C)cc32)cc1 [Example 65, N-(4-((6-methyl-2-oxo-2,3-dihydro-1H-benzo[d]imidazol-1-yl)methyl)benzyl)acetamide]
9 | CNC(=O)Cc1ccc(Cn2c(=O)[nH]c3ccc(F)cc32)cc1 [Example 67, 2-(4-((6-fluoro-2-oxo-2,3-dihydro-1H-benzo[d]imidazol-1-yl)methyl)phenyl)-N-methylacetamide]
16 | CN(C)C(=O)Cc1ccc(Cn2c(=O)[nH]c3ccc(F)cc32)cc1 [Example 66, 2-(4-((6-fluoro-2-oxo-2,3-dihydro-1H-benzo[d]imidazol-1-yl)methyl)phenyl)-N,N-dimethylacetamide]
9 | CC(=O)NCc1ccc(Cn2c(=O)[nH]c3ccc(F)cc32)cc1 [Example 94, N-(4-((6-fluoro-2-oxo-2,3-dihydro-1H-benzo[d]imidazol-1-yl)methyl)benzyl)acetamide]
10 | CC(=O)NCc1ccc(Cn2c(=O)[nH]c3ccccc32)cc1C [Example 49, N-(2-methyl-4-((2-oxo-2,3-dihydro-1H-benzo[d]imidazol-1-yl)methyl)benzyl)acetamide]
7 | Cc1cc(Cn2c(=O)[nH]c3ccccc32)ccc1Cc1nnco1 [Example 54, 1-(4-((1,3,4-oxadiazol-2-yl)methyl)-3-methylbenzyl)-1,3-dihydro-2H-benzo[d]imidazol-2-one]
15 | C[C@@H]1NC(=O)O[C@H]1c1cccc(Cn2c(=O)[nH]c3ccccc32)c1 [Example 31, 1-({3-[(4S,5S)-4-methyl-2-oxo-1,3-oxazolidin-5-yl]phenyl}methyl)-1,3-dihydro-2H-benzimidazol-2-one]
6 | Cc1cc(C)cc(Cn2c(=O)[nH]c3ccccc32)c1 [Example 72, 1-[(3,5-dimethylphenyl)methyl]-1,3-dihydro-2H-benzimidazol-2-one]
2 | O=C(NC1CC1)c1ccc(Cn2c(=O)[nH]c3ccccc32)s1 [Example 14]
